Results from PMC11876601 (Molecular Systems Biology, 2025).
Several values for one entry are separate records, joined by “and”; a condition that tells them apart may be missing. Equal values may be shown once. Read-outs that look alike come from different tables or passages of the source.

System: AsPC-1 cells
Assay: Cell proliferation assay, chemodrug + ATR inhibitor (Incucyte confluence, 72 h);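 also: underlying read-out for every value is AsPC-1 confluence after 72 h incubation at 37 °C and 5% CO2, divided by that well's starting confluence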
Settings: for Curve bottom / Curve slope / Curve top / EC50 / pEC50: AsPC-1; for Ratio: Response / Response vehicle (mean)
[1] = Experiment GEM (no ATRi), single replicates R1-R3
[2] = Experiment GEM+ATRi_dose1, single replicates R1-R3
[3] = Experiment GEM+ATRi_dose2, single replicates R1-R3
[4] = Experiment GEM+ATRi_dose3, single replicates R1-R3
[5] = Drug 0 nM + ATRi 3 nM (ATRi alone, GEM+ATRi_dose1 series), replicates R1-R3
[6] = Drug 0 nM + ATRi 10 nM (ATRi alone, GEM+ATRi_dose2 series), replicates R1-R3
[7] = Drug 0 nM + ATRi 30 nM (ATRi alone, GEM+ATRi_dose3 series), replicates R1-R3
[8] = Drug 1 nM + ATRi 3 nM (GEM+ATRi_dose1), replicates R1-R3
[9] = Drug 1 nM + ATRi 10 nM (GEM+ATRi_dose2), replicates R1-R3
[10] = Drug 1 nM + ATRi 30 nM (GEM+ATRi_dose3), replicates R1-R3
[11] = Drug 1 nM alone, ATRi 0 nM (experiment 'GEM'), replicates R1-R3
[12] = Drug 3 nM + ATRi 3 nM (GEM+ATRi_dose1), replicates R1-R3
[13] = Drug 3 nM + ATRi 10 nM (GEM+ATRi_dose2), replicates R1-R3
[14] = Drug 3 nM + ATRi 30 nM (GEM+ATRi_dose3), replicates R1-R3
[15] = Drug 3 nM alone, ATRi 0 nM (experiment 'GEM'), replicates R1-R3
[16] = Drug 10 nM + ATRi 3 nM (GEM+ATRi_dose1), replicates R1-R3
[17] = Drug 10 nM + ATRi 10 nM (GEM+ATRi_dose2), replicates R1-R3
[18] = Drug 10 nM + ATRi 30 nM (GEM+ATRi_dose3), replicates R1-R3
[19] = Drug 10 nM alone, ATRi 0 nM (experiment 'GEM'), replicates R1-R3
[20] = Drug 30 nM + ATRi 3 nM (GEM+ATRi_dose1), replicates R1-R3
[21] = Drug 30 nM + ATRi 10 nM (GEM+ATRi_dose2), replicates R1-R3
[22] = Drug 30 nM + ATRi 30 nM (GEM+ATRi_dose3), replicates R1-R3
[23] = Drug 30 nM alone, ATRi 0 nM (experiment 'GEM'), replicates R1-R3
[24] = Drug 100 nM + ATRi 3 nM (GEM+ATRi_dose1), replicates R1-R3
[25] = Drug 100 nM + ATRi 10 nM (GEM+ATRi_dose2), replicates R1-R3
[26] = Drug 100 nM + ATRi 30 nM (GEM+ATRi_dose3), replicates R1-R3
[27] = Drug 100 nM alone, ATRi 0 nM (experiment 'GEM'), replicates R1-R3
[28] = Drug 300 nM + ATRi 3 nM (GEM+ATRi_dose1), replicates R1-R3
[29] = Drug 300 nM + ATRi 10 nM (GEM+ATRi_dose2), replicates R1-R3
[30] = Drug 300 nM + ATRi 30 nM (GEM+ATRi_dose3), replicates R1-R3
[31] = Drug 300 nM alone, ATRi 0 nM (experiment 'GEM'), replicates R1-R3
[32] = Drug 1000 nM + ATRi 3 nM (GEM+ATRi_dose1), replicates R1-R3
[33] = Drug 1000 nM + ATRi 10 nM (GEM+ATRi_dose2), replicates R1-R3
[34] = Drug 1000 nM + ATRi 30 nM (GEM+ATRi_dose3), replicates R1-R3
[35] = Drug 1000 nM alone, ATRi 0 nM (experiment 'GEM'), replicates R1-R3
[36] = Drug 3000 nM + ATRi 3 nM (GEM+ATRi_dose1), replicates R1-R3
[37] = Drug 3000 nM + ATRi 10 nM (GEM+ATRi_dose2), replicates R1-R3
[38] = Drug 3000 nM + ATRi 30 nM (GEM+ATRi_dose3), replicates R1-R3
[39] = Drug 3000 nM alone, ATRi 0 nM (experiment 'GEM'), replicates R1-R3
[40] = chemodrug 30 nM alone (ATRi 0 nM)
[41] = chemodrug 100 nM alone (ATRi 0 nM)
[42] = chemodrug 300 nM alone (ATRi 0 nM)
[43] = chemodrug 1000 nM alone (ATRi 0 nM)
[44] = chemodrug 3000 nM alone (ATRi 0 nM)

Protocol: Cells were seeded at 5000 cells/well into 96-well flat bottom plates (Eppendorf) and allowed to attach overnight. […] Cells were incubated for 72 h at 37 °C and 5% CO2. Cell confluence readouts at 72 h were either normalized to their initial confluence using the Incucyte software (AsPC-1) or used without prior normalization (all others). […] Each experiment was performed in triplicates, the data was plotted as mean ± standard deviation (s.d.).

Compound: N.N.[Cl][Pt][Cl] [Cisplatin]
- Curve bottom [1]: 1.04 and 1.01 and 1.00
- Curve slope [1]: 1.30 and 2.18 and 1.82
- Curve top [1]: 0.20 and 0.35 and 0.27
- EC50 [1]: 513 nM and 218 nM and 302 nM
- pEC50 [1]: 6.29 and 6.66 and 6.52
- Curve bottom [2]: 1.05 and 1.02 and 1.03
- Curve slope [2]: 1.41 and 1.64 and 1.76
- Curve top [2]: 0.25 and 0.33 and 0.27
- EC50 [2]: 172 nM and 118 nM and 151 nM
- pEC50 [2]: 6.76 and 6.93 and 6.82
- Curve bottom [3]: 1.03 and 1.00 and 1.02
- Curve slope [3]: 1.60 and 1.79 and 1.21
- Curve top [3]: 0.28 and 0.31 and 0.26
- EC50 [3]: 36.4 nM and 34.9 nM and 37.1 nM
- pEC50 [3]: 7.44 and 7.46 and 7.43
- Curve bottom [4]: 0.90 and 0.95 and 0.88
- Curve slope [4]: 0.65 and 0.81 and 0.69
- Curve top [4]: 0.22 and 0.29 and 0.23
- EC50 [4]: 6.62 nM and 4.98 nM and 7.67 nM
- pEC50 [4]: 8.18 and 8.30 and 8.12
- Response [5]: 86.95 and 90.22 and 92.73
- Response [6]: 86.95 and 90.22
- Response [7]: 75.87 and 84.36
- Response [8]: 87.64 and 91.58 and 92.37
- Response [9]: 86.97 and 90.31
- Response [10]: 68.28 and 77.94
- Response [11]: 87.69 and 92.23
- Response [12]: 91.78 and 94.40 and 93.95
- Response [13]: 85.95 and 90.04
- Response [14]: 52.30 and 58.04
- Response [15]: 89.38 and 90.87
- Response [16]: 89.09 and 93.32 and 91.50
- Response [17]: 81.41 and 84.65
- Response [18]: 41.30 and 46.95
- Response [19]: 87.15 and 91.05
- Response [20]: 84.14 and 83.47 and 86.69
- Response [21]: 60.15 and 63.62
- Response [22]: 36.88 and 38.31
- Response [23]: 87.92 and 89.82
- Response [24]: 67.31 and 66.59 and 71.27
- Response [25]: 33.79 and 36.06
- Response [26]: 30.17 and 37.05
- Response [27]: 79.92 and 81.64
- Response [28]: 43.01 and 39.79 and 38.91
- Response [29]: 30.09 and 31.69
- Response [30]: 22.83 and 27.53
- Response [31]: 65.38 and 51.74
- Response [32]: 27.32 and 30.30 and 27.51
- Response [33]: 23.88 and 28.00
- Response [34]: 20.74 and 24.11
- Response [35]: 37.94 and 32.34
- Response [36]: 22.35 and 31.11 and 24.18
- Response [37]: 21.92 and 27.23 and 22.65
- Response [38]: 19.23 and 26.92
- Response [39]: 23.81 and 32.93
- Ratio [5]: 1.02 and 1.00 and 1.03
- Ratio [6]: 1.02 and 1.00
- Ratio [7]: 0.89 and 0.93
- Ratio [8]: 1.03 and 1.01 and 1.02
- Ratio [9]: 1.02 and 1.00
- Ratio [10]: 0.80 and 0.86
- Ratio [11]: 1.03 and 1.02
- Ratio [12]: 1.08 and 1.04
- Ratio [13]: 1.01 and 1.00
- Ratio [14]: 0.61 and 0.64
- Ratio [15]: 1.05 and 1.00
- Ratio [16]: 1.05 and 1.03 and 1.01
- Ratio [17]: 0.96 and 0.94
- Ratio [18]: 0.49 and 0.52
- Ratio [19]: 1.02 and 1.01
- Ratio [20]: 0.99 and 0.92 and 0.96
- Ratio [21]: 0.71 and 0.70
- Ratio [22]: 0.43 and 0.42
- Ratio [23]: 1.03 and 0.99
- Ratio [24]: 0.79 and 0.74
- Ratio [25]: 0.40
- Ratio [26]: 0.35 and 0.41
- Ratio [27]: 0.94 and 0.90
- Ratio [28]: 0.51 and 0.44 and 0.43
- Ratio [29]: 0.35
- Ratio [30]: 0.27 and 0.30
- Ratio [31]: 0.77 and 0.57
- Ratio [32]: 0.32 and 0.34 and 0.31
- Ratio [33]: 0.28 and 0.31
- Ratio [34]: 0.24 and 0.27
- Ratio [35]: 0.45 and 0.36
- Ratio [36]: 0.26 and 0.34 and 0.27
- Ratio [37]: 0.26 and 0.30 and 0.25
- Ratio [38]: 0.23 and 0.30
- Ratio [39]: 0.28 and 0.36
- Ratio (Response / Response vehicle (mean)) (chemodrug 1 nM + ATRi 10 nM): 1.00
- Response (chemodrug 1 nM + ATRi 10 nM): 89.91
- Ratio (Response / Response vehicle (mean)) (chemodrug 1 nM + ATRi 30 nM): 0.80
- Response (chemodrug 1 nM + ATRi 30 nM): 71.79
- Ratio (Response / Response vehicle (mean)) (chemodrug 1 nM alone (ATRi 0 nM)): 1.02
- Ratio (Response / Response vehicle (mean)) (chemodrug 3 nM + ATRi 10 nM): 0.99
- Response (chemodrug 3 nM + ATRi 10 nM): 89.48
- Ratio (Response / Response vehicle (mean)) (chemodrug 3 nM + ATRi 30 nM): 0.63
- Response (chemodrug 3 nM + ATRi 30 nM): 57.06
- Ratio (Response / Response vehicle (mean)) (chemodrug 3 nM alone (ATRi 0 nM)): 1.00
- Ratio (Response / Response vehicle (mean)) (chemodrug 10 nM + ATRi 10 nM): 0.89
- Response (chemodrug 10 nM + ATRi 10 nM): 80.53
- Ratio (Response / Response vehicle (mean)) (chemodrug 10 nM + ATRi 30 nM): 0.51
- Response (chemodrug 10 nM + ATRi 30 nM): 45.87
- Ratio (Response / Response vehicle (mean)) (chemodrug 10 nM alone (ATRi 0 nM)): 0.99
- Ratio (Response / Response vehicle (mean)) (chemodrug 30 nM + ATRi 10 nM): 0.69
- Response (chemodrug 30 nM + ATRi 10 nM): 62.02
- Ratio (Response / Response vehicle (mean)) (chemodrug 30 nM + ATRi 30 nM): 0.43
- Response (chemodrug 30 nM + ATRi 30 nM): 38.92
- Ratio (Response / Response vehicle (mean)) [40]: 1.03
- Response [40]: 92.93
- Ratio (Response / Response vehicle (mean)) (chemodrug 100 nM + ATRi 10 nM): 0.43
- Response (chemodrug 100 nM + ATRi 10 nM): 39.16
- Ratio (Response / Response vehicle (mean)) (chemodrug 100 nM + ATRi 30 nM): 0.35
- Response (chemodrug 100 nM + ATRi 30 nM): 31.50
- Ratio (Response / Response vehicle (mean)) [41]: 0.90
- Response [41]: 81.28
- Ratio (Response / Response vehicle (mean)) (chemodrug 300 nM + ATRi 10 nM): 0.31
- Response (chemodrug 300 nM + ATRi 10 nM): 28.30
- Ratio (Response / Response vehicle (mean)) (chemodrug 300 nM + ATRi 30 nM): 0.27
- Response (chemodrug 300 nM + ATRi 30 nM): 23.96
- Ratio (Response / Response vehicle (mean)) [42]: 0.65
- Response [42]: 58.52
- Ratio (Response / Response vehicle (mean)) (chemodrug 1000 nM + ATRi 10 nM): 0.29
- Response (chemodrug 1000 nM + ATRi 10 nM): 25.88
- Ratio (Response / Response vehicle (mean)) (chemodrug 1000 nM + ATRi 30 nM): 0.26
- Response (chemodrug 1000 nM + ATRi 30 nM): 23.54
- Ratio (Response / Response vehicle (mean)) [43]: 0.34
- Response [43]: 30.70
- Ratio (Response / Response vehicle (mean)) (chemodrug 3000 nM + ATRi 30 nM): 0.23
- Response (chemodrug 3000 nM + ATRi 30 nM): 20.88
- Ratio (Response / Response vehicle (mean)) [44]: 0.29
- Response [44]: 26.17
- sensitization of AsPC-1 cells to the chemodrug by Elimusertib (chemodrug + three sub-EC50 doses of Elimusertib): sensitized
- EC50 (read-out: EC50 mean, Experiment GEM (no ATRi), mean of R1-R3, repeated in each replicate line): 344 nM
- EC50 (read-out: EC50 mean, Experiment GEM+ATRi_dose1, mean of R1-R3, repeated in each replicate line): 147 nM
- EC50 (read-out: EC50 mean, Experiment GEM+ATRi_dose2, mean of R1-R3, repeated in each replicate line): 36.1 nM
- EC50 (read-out: EC50 mean, Experiment GEM+ATRi_dose3, mean of R1-R3, repeated in each replicate line): 6.42 nM
